The numbers were not newly measured in US20040120994A1, “Transdermal therapeutic system containing testorone and method for its production thereof” (priority 2001, published 2004), which cites them from elsewhere.

One series deals with transport proteins. The settings on record: in the blood.

SMILES strings stand for the structures.

For `C[C@]12CC[C@H]3[C@@H](CCC4=CC(=O)CC[C@@]43C)[C@@H]1CC[C@@H]2O` [testosterone], the plasma half-life entry was “around 80 min”. In addition, the “testosterone bound to transport proteins” value in the series on transport proteins is 98%.
